Test results published in patent US20170348322A1, “BK Channels as Non-Genomic Estrogen Targets for Overactive Bladder” (priority 2016, published 2017).

Assays:
[1] = tested on: human DSM isolated strips; test: Isometric tension recordings: spontaneous phasic contractions of DSM isolated strips; assay type: cell-based
Procedure: Human DSM specimen collection: The study forming the basis for the current disclosure was conducted according to protocol Pro00045232, reviewed and approved by the Medical University of South Carolina Institutional Review Board. […] The DSM tissue samples were obtained during open bladder surgeries performed for a variety of indications such as bladder cancer, including radical cystectomy for urothelial carcinoma, and adenocarcinoma. In such cases, the collected DSM tissue was remote from the site of tumor. DSM strips were dissected from the bladder specimens, and after removing the urothelial and lamina propria layers, the strips were used for single DSM cell isolation and isometric DSM tension recordings.
(§1) Isometric DSM tension recordings: Isometric DSM tension recordings of human DSM isolated strips (˜7-8 mm long and ˜4-5 mm wide) were conducted as previously described (Hristov K L, Chen M, Kellett W F, Rovner E S, and Petkov G V. Large-conductance voltage- and Ca2+-activated K+ channels regulate human detrusor smooth muscle function. Am J Physiol Cell Physiol 301: C903-912, 2011; Hristov K L, Parajuli S P, Soder R P, Cheng Q, Rovner E S, and Petkov G V. Suppression of human detrusor smooth muscle excitability and contractility via pharmacological activation of large conductance Ca2+-activated K+ channels. Am J Physiol Cell Physiol 302: C1632-1641, 2012).
Solutions and drugs: Ca^2+-free dissection solution contained (in mM): 80 monosodium glutamate, 55 NaCl, 6 KCl, 10 glucose, 10 HEPES,2 MgCl2, and the pH was adjusted to 7.3 with NaOH. For the functional studies on human DSM contractility, the physiological saline solution had the following composition (in mM): 119 NaCl, 4.7 KCl, 24 NaHCO3, 1.2 KH2PO4, 2.5 CaCl2, 1.2 MgSO4, and 11 D-glucose, aerated with 95% O2-5% CO2 (pH 7.4). Extracellular (bath) solution used for the perforated whole cell patch-clamp experiments contained (in mM): 134 NaCl, 6 KCl, 1 MgCl2, 2 CaCl2, 10 glucose, 10 HEPES, and pH was adjusted to 7.4 with NaOH. The patch-pipette solution for the perforated patch-clamp experiments contained (in mM): 110 potassium aspartate, 30 KCl, 10 NaCl, 1 MgCl2, 10 HEPES, 0.05 EGTA, and pH was adjusted to 7.2 with NaOH. Amphotericin-B stock solution was prepared daily in dimethyl sulfoxide (DMSO) and was added to the pipette solution (200 μg/ml) before the experiment and was replaced every 1-2 h. Extracellular and patch-pipette solutions for single BK channel recordings contained (in mM): 140 KCl, 1.08 MgCl2, 5 EGTA, 10 HEPES, and 3.16 CaCl2, adjusted to pH 7.2 with NaOH (Ca^2+ free concentration was calculated ˜300 nM with WEBMAXC Standard, http://www.stanford.edu/˜cpatton/webmaxcS.htm, Chris Patton). […]
Data analysis and statistics: Clampfit 10.3 (Molecular Device, Union City, Calif.) and Minianalysis software (Synaptosoft, Inc., NJ) were used to analyze the data. Mean values of the last 50 ms pulse of 200 ms depolarization step of at least 5 average files in the absence (control) and in the presence of 17β-estradiol were analyzed to evaluate the effects of 17β-estradiol on steady-state whole cell BK currents. […] Five minutes of at least an 8-10 min stable patch-clamp recording prior to application of 17β-estradiol were analyzed for control data, and the last 5 min of continuous recordings of 10-15 min after application of 17β-estradiol were analyzed to evaluate the effects of 17β-estradiol on RMP or TBKCs. […]

[2] = tested on: human DSM isolated strips; test: Isometric tension recordings: nerve-evoked (EFS-induced) contractions of DSM isolated strips; assay type: cell-based; details: 17β-estradiol 100 nM; in particular at lower stimulation frequencies (0.5-20.0 Hz); n=7, N=3; P<0.05
Procedure: as §1
(§2) Solutions and drugs: Ca^2+-free dissection solution contained (in mM): 80 monosodium glutamate, 55 NaCl, 6 KCl, 10 glucose, 10 HEPES,2 MgCl2, and the pH was adjusted to 7.3 with NaOH. […] Extracellular and patch-pipette solutions for single BK channel recordings contained (in mM): 140 KCl, 1.08 MgCl2, 5 EGTA, 10 HEPES, and 3.16 CaCl2, adjusted to pH 7.2 with NaOH (Ca^2+ free concentration was calculated ˜300 nM with WEBMAXC Standard, http://www.stanford.edu/˜cpatton/webmaxcS.htm, Chris Patton). […]

BK channels [3] = target: T1, BK channels (Homo sapiens, UniProt Q12791+Q16558); test: Transient BK currents (TBKCs), perforated whole cell patch-clamp, freshly-isolated DSM cells; assay type: cell-based; details: 17β-estradiol 100 nM, holding potential −20 mV
T1 construct: Human single DSM cells were enzymatically isolated as previously described; endogenous in cells; host or cells: freshly-isolated human detrusor smooth muscle (DSM) cells from open bladder surgery specimens
T1 sequence (Q12791 whole entry): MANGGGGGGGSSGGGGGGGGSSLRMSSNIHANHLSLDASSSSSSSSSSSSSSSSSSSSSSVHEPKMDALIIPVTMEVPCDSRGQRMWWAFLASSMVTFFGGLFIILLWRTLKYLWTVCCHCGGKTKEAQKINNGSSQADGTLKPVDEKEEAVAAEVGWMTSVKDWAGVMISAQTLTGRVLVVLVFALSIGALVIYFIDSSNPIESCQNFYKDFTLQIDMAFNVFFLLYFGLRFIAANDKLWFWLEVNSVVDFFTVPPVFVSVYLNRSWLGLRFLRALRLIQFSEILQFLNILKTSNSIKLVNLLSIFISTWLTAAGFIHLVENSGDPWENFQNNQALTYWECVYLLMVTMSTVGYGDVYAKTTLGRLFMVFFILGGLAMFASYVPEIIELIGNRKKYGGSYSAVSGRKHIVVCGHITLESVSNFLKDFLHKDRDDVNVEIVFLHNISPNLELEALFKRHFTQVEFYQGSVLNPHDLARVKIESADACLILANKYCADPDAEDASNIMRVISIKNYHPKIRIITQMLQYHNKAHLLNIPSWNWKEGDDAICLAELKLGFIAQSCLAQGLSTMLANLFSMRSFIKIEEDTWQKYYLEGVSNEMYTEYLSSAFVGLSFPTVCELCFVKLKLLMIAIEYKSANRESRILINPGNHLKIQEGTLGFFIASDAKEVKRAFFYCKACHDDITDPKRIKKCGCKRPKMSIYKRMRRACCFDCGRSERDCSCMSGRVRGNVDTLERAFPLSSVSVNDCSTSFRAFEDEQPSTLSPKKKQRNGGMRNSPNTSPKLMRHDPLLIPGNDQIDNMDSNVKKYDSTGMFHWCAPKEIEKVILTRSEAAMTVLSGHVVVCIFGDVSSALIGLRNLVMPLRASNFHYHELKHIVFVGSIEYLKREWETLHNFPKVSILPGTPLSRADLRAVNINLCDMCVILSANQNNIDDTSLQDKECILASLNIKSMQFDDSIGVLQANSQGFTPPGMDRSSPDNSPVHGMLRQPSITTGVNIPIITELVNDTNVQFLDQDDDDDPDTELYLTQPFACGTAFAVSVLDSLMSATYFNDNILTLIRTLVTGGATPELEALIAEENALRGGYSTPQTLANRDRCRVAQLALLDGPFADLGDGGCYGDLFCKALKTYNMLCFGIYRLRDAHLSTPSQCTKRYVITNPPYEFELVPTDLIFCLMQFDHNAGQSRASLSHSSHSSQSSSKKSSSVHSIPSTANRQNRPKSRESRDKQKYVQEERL
T1 sequence (Q16558 whole entry): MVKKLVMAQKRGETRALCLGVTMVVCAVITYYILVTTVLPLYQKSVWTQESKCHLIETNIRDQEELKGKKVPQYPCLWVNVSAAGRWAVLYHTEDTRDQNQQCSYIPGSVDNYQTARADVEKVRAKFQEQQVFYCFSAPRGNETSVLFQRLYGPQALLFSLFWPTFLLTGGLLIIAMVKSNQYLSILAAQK
Text: DSM single cell isolation: Human single DSM cells were enzymatically isolated as previously described. (Hristov K L, Chen M, Kellett W F, Rovner E S, and Petkov G V. Large-conductance voltage- and Ca2+-activated K+ channels regulate human detrusor smooth muscle function. Am J Physiol Cell Physiol 301: C903-912, 2011; Hristov K L, Parajuli S P, Soder R P, Cheng Q, Rovner E S, and Petkov G V. Suppression of human detrusor smooth muscle excitability and contractility via pharmacological activation of large conductance Ca2+-activated K+ channels. Am J Physiol Cell Physiol 302: C1632-1641, 2012; Parajuli S P, Hristov K L, Cheng Q P, Malysz J, Rovner E S, and Petkov G V. Functional link between muscarinic receptors and large-conductance Ca2+-activated K+ channels in freshly isolated human detrusor smooth muscle cells. Pflugers Arch 467: 665-675, 2015.) […]
(§3) The current disclosure applied the amphotericin B-perforated whole cell patch-clamp technique to record transient BK currents (TBKCs), depolarization-induced steady-state whole cell BK currents, and the resting membrane potential (RMP) of human freshly-isolated DSM cells. TBKCs in DSM cells were recorded at the holding potential of −20 mV. […] Single BK channel activity was recorded from inside-out excised membrane patches using symmetrical K^+ (140 mM) solutions, at a holding potential of −60 mV (Vh=−60 mV). […]

BK channels [4] = target: T1, BK channels; test: Depolarization-induced steady-state whole cell outward BK currents, amphotericin B-perforated patch-clamp, freshly-isolated DSM cells; assay type: cell-based
Text: (§4) DSM single cell isolation: Human single DSM cells were enzymatically isolated as previously described. (Hristov K L, Chen M, Kellett W F, Rovner E S, and Petkov G V. Large-conductance voltage- and Ca2+-activated K+ channels regulate human detrusor smooth muscle function. Am J Physiol Cell Physiol 301: C903-912, 2011; Hristov K L, Parajuli S P, Soder R P, Cheng Q, Rovner E S, and Petkov G V. Suppression of human detrusor smooth muscle excitability and contractility via pharmacological activation of large conductance Ca2+-activated K+ channels. Am J Physiol Cell Physiol 302: C1632-1641, 2012; Parajuli S P, Hristov K L, Cheng Q P, Malysz J, Rovner E S, and Petkov G V. Functional link between muscarinic receptors and large-conductance Ca2+-activated K+ channels in freshly isolated human detrusor smooth muscle cells. Pflugers Arch 467: 665-675, 2015.)
(§5) Patch-clamp electrophysiological experiments: Patch-clamp experiments were performed as previously described. […]
as §3

pig DSM isolated strips = details: 17β-estradiol 30 μM; cited from earlier work
BK channels [5] = target: T1, BK channels; test: Single BK channel recordings, inside-out excised membrane patches of DSM cells; assay type: biochemical; details: 17β-estradiol 100 nM, n=9, N=7
Procedure: as §5, §3, §2

human DSM cells = test: Resting membrane potential (RMP) of DSM cells, current-clamp; assay type: cell-based
Procedure: as §4, with “Patch-clamp electrophysiological experiments: Patch-clamp experiments” for “DSM single cell isolation: Human single DSM cells”, “performed” for “enzymatically isolated”, “2012; Malysz J, Rovner E S, and Petkov G V. Single-channel biophysical and pharmacological characterizations of native human large-conductance calcium-activated potassium channels in freshly isolated detrusor smooth muscle cells. Pflugers Arch 465: 965-975, 2013;” for “2012;”
The current disclosure applied the amphotericin B-perforated whole cell patch-clamp technique to record transient BK currents (TBKCs), depolarization-induced steady-state whole cell BK currents, and the resting membrane potential (RMP) of human freshly-isolated DSM cells. TBKCs in DSM cells were recorded at the holding potential of −20 mV. Depolarization-induced steady-state whole cell BK currents were elicited by holding the DSM cells at −70 mV and then brief, 200 ms depolarization steps were applied from −40 mV to +80 mV in increments of 20 mV. Single BK channel activity was recorded from inside-out excised membrane patches using symmetrical K^+ (140 mM) solutions, at a holding potential of −60 mV (Vh=−60 mV). The electrochemical driving force for K^+ in these experimental conditions was +60 mV (VDV=60 mV). Paxilline (1 μM), a selective BK channel inhibitor was used to dissect their functional role in mediating 17β-estradiol induced effects on DSM function. All patch-clamp experiments were conducted at room temperature (22-23° C.).
as §2

rat DSM isolated strips = details: 17β-estradiol 30 μM; cited from earlier work
[6] = 17β-estradiol 100 nM-1 μM, strips pre-incubated with paxilline (1 μM), n=5, N=5, P>0.05
[7] = 17β-estradiol 1 μM, n=8, N=5, P<0.05

For `C[C@]12CC[C@@H]3c4ccc(O)cc4CC[C@H]3[C@@H]1CC[C@@H]2O` [17β-estradiol], the “effect on muscle force integral” value [1, 6] was “did not affect”, the “effect on spontaneous phasic contraction amplitude” value [1, 6] was “did not affect” and the “decrease of muscle force integral” value [1, 7] was 44.4±13.2%. The “decrease of spontaneous phasic contraction amplitude” value [1, 7] was 53.3±8.9%, the “effect on phasic contraction frequency” value ([1]; 17β-estradiol 1 μM, n=8, N=5, P>0.05) was “without significantly changing” and the “effect on EFS-induced contractions” value [2] was “significantly inhibited”. For the same compound, the “effect on average TBKC amplitude” value (BK channels [3]) was “without significantly altering”, the “increase of the frequency of TBKCs” value (BK channels [3]; control taken as 100%, n=8, N=5, P<0.05) was 74.6±37.8% and the “effect on whole cell K+ current density” value (BK channels [4]; 17β-estradiol 100 nM, n=12, N=8, P<0.05) was “significantly increased”. For the same compound, the “whole cell outward K+ currents” value (BK channels [4]; at +80 mV, 17β-estradiol 100 nM, control 33.9±6.5 pA/pF, n=12, N=8, P<0.05) was 44.5±7.8 pA/pF, the BK current amplitude (BK channels [4]; at +80 mV, both paxilline (1 μM) and 17β-estradiol (100 nM), vs 6.1±1.7 paxilline alone, P>0.05) was 6.8±1.8 pA/pF and the “effect on KCl- and muscarinic receptor-induced contractions” value (pig DSM isolated strips) was “inhibitory effects”. The “single BK channel open probability (NPo)” value (BK channels [5]; Vh=−60 mV, control 0.086±0.030, P<0.05) was 0.137±0.030, the “single BK channel current amplitude” value (BK channels [5]; control 11.7±0.7 pA, P>0.05) was 11.9±0.5 pA and the “DSM cell RMP” value (human DSM cells; 17β-estradiol 100 nM, control −25.7±3.2 mV, n=11, N=9, P<0.05) was −28.9±3.3 mV. The “hyperpolarization of the DSM cell RMP” value (human DSM cells; 17β-estradiol 100 nM, n=11, N=9, P<0.05) was about 3 mV, the “DSM cell RMP” value (human DSM cells; 17β-estradiol in the presence of paxilline (1 μM), n=8, N=5, P>0.05) was −21.9±4.4 mV and the “effect on pharmacologically-induced and nerve-evoked contractions” value (rat DSM isolated strips) was “decrease”.

For `CC(C)(O)[C@H]1O[C@H]2CC[C@@]3(C)[C@@](O)(CC[C@H]4Cc5c([nH]c6ccccc56)[C@@]43C)C2=CC1=O` [paxilline], the “DSM cell RMP” value (human DSM cells; paxilline only (1 μM), n=8, N=5) was −22.1±4.7 mV.
